{
  "source": "patent EP0745595A1",
  "about": "“3-(3-Aryloxyphenyl)-1-(substituted methyl)-s-triazine-2,4,6-oxo or thiotrione herbicidal agents” (American Cyanamid Company, priority 1995, dated 1996)",
  "format_in_all_cases": "in vivo",
  "key": {"[1]": {"system": "ORYZA SATIVA, L. TEBONNET", "test": "Rice tolerance to post-transplant applications under flooded paddy conditions, ORYSAT (Rice, Tebonnet)", "conditions": "post-transplant rice, 3-4 weeks after treatment", "how_it_was_run": "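Rated on a visual 0–9 scale against untreated plants 3–4 weeks after application, rice (cv. Tebonnet) tolerance was tested by applying compounds (approx. 0.5–0.063 kg/ha, acetone/water 50/50) to flooded soil three days post-transplant, water kept 1.5–3 cm deep.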"}, "SAGITTARIA PYGMAEA, L.": {"system": "SAGITTARIA PYGMAEA, L.", "test": "Preemergence weed control under flooded paddy conditions, SAGPY (Arrowhead (Pygmaea))", "conditions": "preemergence, 3-4 weeks after treatment", "how_it_was_run": "(§1)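 Visual 0-9 rating against untreated control, covering stand, vigor, malformation, size and chlorosis, scored three to four weeks post-treatment in a greenhouse. Application was into 1.5-3 cm flood water over silt loam sown at 0.5 cm. The 50/50 v/v aqueous/acetone doses were about 0.5, 0.25, 0.125 and 0.063 kg/ha.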"}, "[2]": {"system": "CYPERUS SEROTINUS, ROTTB.", "test": "Preemergence weed control under flooded paddy conditions, CYPSE (Flatsedge)", "conditions": "preemergence, 3-4 weeks after treatment", "how_it_was_run": "as §1"}, "GALIUM APARINE": {"system": "GALIUM APARINE", "test": "Preemergence herbicidal evaluation, GALAP (Galium)", "conditions": "rated four to five weeks after treatment", "text": "(§2) Results of herbicide evaluation are expressed on a rating scale (0-9). The scale is based upon a visual observation of plant stand, vigor, malformation, size, chlorosis and overall plant appearance as compared with a control.\n(§3) The preemergence herbicidal activity of the test compounds of the present invention is exemplified by the following tests in which the seeds of a variety of monocotyledonous and dicotyledonous plants are separately mixed with potting soil and planted on top of approximately one inch of soil in separate pint cups. […] The treated cups are then placed on greenhouse benches, watered and cared for in accordance with conventional greenhouse procedures. From four to five weeks after treatment, the tests are terminated and each cup is examined and rated according to the rating system provided in Example 40.\n(§4) The compounds evaluated are reported by compound number given in Example 40."}, "CASSIA OBTUSIFOLIA, L.": {"system": "CASSIA OBTUSIFOLIA, L.", "test": "Preemergence herbicidal evaluation, CASOB (Sicklepod)", "conditions": "Rate 0.500 kg/ha, rated four to five weeks after treatment", "text": "as §2, §3, §4"}, "ZEA MAYS L.": {"system": "ZEA MAYS L.", "test": "Preemergence herbicidal evaluation, ZEAMX (Corn, Field)", "conditions": "rated four to five weeks after treatment", "text": "as §2, §3, §4"}, "[3]": {"system": "ECHINOCHLOA CRUS-GALLI, (L) BEAU", "test": "Preemergence herbicidal evaluation, ECHCG (Barnyardgrass)", "conditions": "rated four to five weeks after treatment", "text": "as §2, §3, §4"}, "[…], PRESL.": {"system": "[…], PRESL.", "test": "Preemergence weed control under flooded paddy conditions, MOOVA (Monochoria)", "conditions": "preemergence, 3-4 weeks after treatment", "how_it_was_run": "as §1"}, "[4]": {"system": "ECHINOCHLOA ORYZOIDES (ARD.)FRITSCH", "test": "Preemergence weed control under flooded paddy conditions, ECHORC (Watergrass (Calif.))", "conditions": "preemergence, 3-4 weeks after treatment", "how_it_was_run": "as §1"}, "[5]": {"system": "ABUTILON THEOPHRASTI, MEDIC.", "test": "Postemergence herbicidal evaluation, ABUTH (Velvetleaf)", "conditions": "rated four to five weeks after treatment, averaged", "how_it_was_run": "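This postemergence herbicide test used two-week-old velvetleaf seedlings grown in jiffy flats. Each compound was sprayed at 40 psi as a dispersion in 50/50 acetone/water with 0.5% TWEEN®20 surfactant. Plants then received routine greenhouse care. After four to five weeks, injury was scored visually on a 0-9 scale against a control, and replicate tests were averaged.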"}, "CHENOPODIUM ALBUM, L.": {"system": "CHENOPODIUM ALBUM, L.", "test": "Preemergence herbicidal evaluation, CHEAL (Lambsquarters, Common)", "conditions": "rated four to five weeks after treatment", "how_it_was_run": "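Greenhouse preemergence test; treated soil cups received compound in aqueous acetone (about 0.125 to 0.50 kg/ha) right after sowing and were assessed visually 4-5 weeks later on a 0-9 scale compared with control plants.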"}},
  "data": [
    {"smiles": "COC(=O)Cn1c(=O)n(C)c(=O)n(-c2cc(Oc3cccc(Cl)c3Cl)ccc2[N+](=O)[O-])c1=O", "note": "[Compound 22, Methyl 3-[5-(2,3-dichlorophenoxy)-2-nitrophenyl]tetrahydro-5-methyl-2,4,6-trioxo-s-triazine-1(2H)-acetate]", "values": [
      {"measurement": "Herbicidal effect rating, ORYSAT", "setting": "[1]; 0.063 kg/ha", "value": 0.0},
      {"measurement": "Herbicidal effect rating, ORYSAT", "setting": "[1]; 0.125 kg/ha", "value": 0.0},
      {"measurement": "Herbicidal effect rating, ORYSAT", "setting": "[1]; 0.250 kg/ha", "value": 0.0},
      {"measurement": "Herbicidal effect rating, ORYSAT", "setting": "[1]; 0.500 kg/ha", "value": 2.0},
      {"measurement": "Herbicidal effect rating, SAGPY", "setting": "SAGITTARIA PYGMAEA, L.; 0.063 kg/ha", "value": 0.0},
      {"measurement": "Herbicidal effect rating, SAGPY", "setting": "SAGITTARIA PYGMAEA, L.; 0.125 kg/ha", "value": 0.0},
      {"measurement": "Herbicidal effect rating, SAGPY", "setting": "SAGITTARIA PYGMAEA, L.; 0.250 kg/ha", "value": 0.0},
      {"measurement": "Herbicidal effect rating, SAGPY", "setting": "SAGITTARIA PYGMAEA, L.; 0.500 kg/ha", "value": 0.0},
      {"measurement": "Herbicidal effect rating, CYPSE", "setting": "[2]; 0.063 kg/ha", "value": 0.0},
      {"measurement": "Herbicidal effect rating, CYPSE", "setting": "[2]; 0.125 kg/ha", "value": 0.0},
      {"measurement": "Herbicidal effect rating, CYPSE", "setting": "[2]; 0.250 kg/ha", "value": 0.0},
      {"measurement": "Herbicidal effect rating, CYPSE", "setting": "[2]; 0.500 kg/ha", "value": 0.0},
      {"measurement": "GALAP herbicidal rating", "setting": "GALIUM APARINE; Rate 0.500 kg/ha", "value": 0.0},
      {"measurement": "CASOB herbicidal rating", "setting": "CASSIA OBTUSIFOLIA, L.", "value": 3.0}
    ]},
    {"smiles": "Cn1c(=O)n(CC(=O)OC(C)(C)C)c(=O)n(-c2cc(Oc3c(F)cc(C(F)(F)F)cc3Cl)ccc2[N+](=O)[O-])c1=O", "note": "[Compound 17, Tert-butyl 3-{5-[(2-chloro-α,α,α,6-tetra-fluoro-p-tolyl)oxy]-2-nitrophenyl}tetra-hydro-5-methyl-2,4,6-trioxo-s-triazine-1(2H)-acetate]", "values": [
      {"measurement": "Herbicidal effect rating, ORYSAT", "setting": "[1]; 0.125 kg/ha", "value": 3.0},
      {"measurement": "Herbicidal effect rating, ORYSAT", "setting": "[1]; 0.250 kg/ha", "value": 3.0},
      {"measurement": "Herbicidal effect rating, ORYSAT", "setting": "[1]; 0.500 kg/ha", "value": 2.0},
      {"measurement": "ZEAMX herbicidal rating", "setting": "ZEA MAYS L.; Rate 0.125 kg/ha", "value": 0.0},
      {"measurement": "ZEAMX herbicidal rating", "setting": "ZEA MAYS L.; Rate 0.250 kg/ha", "value": 0.0},
      {"measurement": "ZEAMX herbicidal rating", "setting": "ZEA MAYS L.; Rate 0.500 kg/ha", "value": 0.0},
      {"measurement": "ECHCG herbicidal rating", "setting": "[3]; Rate 0.125 kg/ha", "value": 0.0},
      {"measurement": "ECHCG herbicidal rating", "setting": "[3]; Rate 0.250 kg/ha", "value": 0.0},
      {"measurement": "ECHCG herbicidal rating", "setting": "[3]; Rate 0.500 kg/ha", "value": 0.0},
      {"measurement": "Herbicidal effect rating, MOOVA", "setting": "[…], PRESL.; 0.125 kg/ha", "value": 9.0},
      {"measurement": "Herbicidal effect rating, MOOVA", "setting": "[…], PRESL.; 0.250 kg/ha", "value": 9.0},
      {"measurement": "Herbicidal effect rating, MOOVA", "setting": "[…], PRESL.; 0.500 kg/ha", "value": 9.0},
      {"measurement": "Herbicidal effect rating, ECHORC", "setting": "[4]; 0.125 kg/ha", "value": 9.0},
      {"measurement": "Herbicidal effect rating, ECHORC", "setting": "[4]; 0.250 kg/ha", "value": 9.0},
      {"measurement": "Herbicidal effect rating, ECHORC", "setting": "[4]; 0.500 kg/ha", "value": 9.0},
      {"measurement": "ABUTH, herbicide rating (0-9)", "setting": "[5]; Rate 0.125 kg/ha", "value": 9.0},
      {"measurement": "ABUTH, herbicide rating (0-9)", "setting": "[5]; Rate 0.250 kg/ha", "value": 9.0},
      {"measurement": "ABUTH, herbicide rating (0-9)", "setting": "[5]; Rate 0.500 kg/ha", "value": 9.0},
      {"measurement": "CHEAL herbicidal rating", "setting": "CHENOPODIUM ALBUM, L.; Rate 0.125 kg/ha", "value": 9.0},
      {"measurement": "CHEAL herbicidal rating", "setting": "CHENOPODIUM ALBUM, L.; Rate 0.250 kg/ha", "value": 9.0},
      {"measurement": "CHEAL herbicidal rating", "setting": "CHENOPODIUM ALBUM, L.; Rate 0.500 kg/ha", "value": 9.0},
      {"measurement": "GALAP herbicidal rating", "setting": "GALIUM APARINE; Rate 0.125 kg/ha", "value": 9.0},
      {"measurement": "GALAP herbicidal rating", "setting": "GALIUM APARINE; Rate 0.250 kg/ha", "value": 9.0},
      {"measurement": "GALAP herbicidal rating", "setting": "GALIUM APARINE; Rate 0.500 kg/ha", "value": 9.0}
    ]}
  ]
}
